Nine molecules from paper PMC4764201, “High Throughput Screen for Escherichia coli Twin Arginine Translocation (Tat) Inhibitors” (PLoS ONE, 2016) can be followed below.

Entries after “also recorded” stand apart in the source; their conditions may differ.

Sequence of E. coli Tat machinery (IMVs containing overproduced TatABC) (P69423 2-258): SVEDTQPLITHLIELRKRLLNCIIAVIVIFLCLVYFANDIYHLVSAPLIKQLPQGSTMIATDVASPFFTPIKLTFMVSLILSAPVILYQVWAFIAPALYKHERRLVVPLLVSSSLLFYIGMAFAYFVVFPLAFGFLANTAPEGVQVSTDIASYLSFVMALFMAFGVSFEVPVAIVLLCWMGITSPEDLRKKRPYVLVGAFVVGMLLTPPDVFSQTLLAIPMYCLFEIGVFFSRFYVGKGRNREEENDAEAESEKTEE
Sequence of E. coli Tat machinery (IMVs containing overproduced TatABC) (P69425 whole entry): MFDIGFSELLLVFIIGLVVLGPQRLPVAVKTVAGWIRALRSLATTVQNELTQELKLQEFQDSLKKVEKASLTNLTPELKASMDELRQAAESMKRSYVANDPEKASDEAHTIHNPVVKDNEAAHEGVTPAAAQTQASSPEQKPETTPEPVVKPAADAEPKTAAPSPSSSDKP
Sequence of E. coli Tat machinery (IMVs containing overproduced TatABC) (P69428 whole entry): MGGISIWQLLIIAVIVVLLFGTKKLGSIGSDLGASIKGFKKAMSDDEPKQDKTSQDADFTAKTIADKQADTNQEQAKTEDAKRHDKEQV

The target in one assay is E. coli Tat machinery (IMVs containing overproduced TatABC) (Escherichia coli, UniProt P69423+P69425+P69428). Nature of the assay: In vitro Tat transport assay of pre-SufI into IMVs, NADH as energy source. Type of assay: biochemical. To be noted: 90 nM pre-SufI, NADH; with and without 2.5 mM DTT. As to the method:
To directly test for inhibition of Tat transport, a gel-based in vitro Tat transport assay was performed using pre-SufI, an authentic Tat precursor protein [7]. In short, this assay consists of incubating a Tat substrate and a Δψ-generating energy source with inverted membrane vesicles (IMVs) containing overproduced TatABC, digesting remaining external protein with a protease, and then analyzing via SDS-PAGE. This assay was run twice using NADH and ATP (if warranted) as energy sources to generate the necessary Δψ. NADH generates a Δψ using respiratory proteins (i.e., the NADH dehydrogenase and cytochrome bo3 ubiquinol oxidase complexes) and ATP generates a Δψ by reversal of ATP synthase. A true Tat inhibitor would survive both assays. In contrast, a respiration inhibitor is expected to reduce Tat transport when only one of the two energy sources is used (except for an ionophore).
Fig 8 Effect of Hits from the Local HTS on In Vitro Tat Transport. (A) Tat transport assays of pre-SufI using NADH to generate a Δψ. Inverted membrane vesicles (IMVs; A280 = 5.0), the fluorescent substrate pre-SufI-IAC^Atto565 (90 nM), and NADH (4 mM) were incubated at 37°C for 30 min with DMSO (control) or with hit compound (20 μM). Samples were treated with the protease proteinase K, run on SDS-PAGE, and analyzed by in-gel fluorescence imaging. Assays were run in duplicate. Band intensity corresponds to the amount of protein transported into the IMV lumen. The following 7 compounds survived this screen: 1^JS, 51^JS, 55^JS, 111^JS, 181^JS, 202^JS, and 140^JS (boxed in red). (B) Tat transport assays of pre-SufI using ATP to generate a Δψ. All 7 compounds surviving the screen in (A) were tested using a Tat transport assay performed identically to those in (A) except that ATP (1 mM) was used in place of NADH. Compound 55^JS was eliminated by this assay—the other 6 compounds survived (boxed in red). (C) Chemical structure of compound 55^JS, N-(4,7-Dioxo-4,7-dihydro-2,1,3-benzoxadiazol-5-yl)acetamide.
Isolation of inverted membrane vesicles (IMVs), Western blot analyses and purification of pre-SufI-IAC were performed as described previously. Western blots were performed using rabbit anti-mCherry antibodies (1:10,000 dilution) in the presence of 0.1% Triton X-100 and 0.1% Tween 20. The pre-SufI-IAC protein was labeled with Atto565 maleimide, and the resultant fluorescent protein, pre-SufI-IAC^Atto565, was used as a substrate for the in vitro Tat transport assays (A280 = 5.0), as described previously. The presence of a Δψ was determined by measuring oxonol VI fluorescence in presence of Tat^+ IMVs (A280 = 0.5), as described previously, except that the translocation buffer lacked BSA. Steady-state fluorescence spectra and fluorescence intensities of whole cells producing mCherry proteins were determined with an SLM-8100 spectrofluorometer.
Supplementary file pone.0149659.s003.tiff: S3 Fig IC50's for Hit Compound 181^JS. (A) The total cellular mCherry fluorescence (live cell assay; n = 1), (B) the in vitro NADH-dependent Tat transport efficiency of pre-SufI (n = 1), and (C) the maximum transmembrane electrical potential gradient (n = 1) were measured for a range of concentrations of compound 181^JS (S2E Fig). (D) SDS-PAGE gel showing in-gel fluorescence data used in (B). For (A), cells expressing spTorA-mCherry-SsrA were grown under Tat^++ conditions in a 384-well plate in the presence of 0, 0.08, 0.15, 0.3, 0.63, 1.25, 2.5, 5, 10, 20, or 40 μM compound 181^JS, as described for the HTS assay (see Methods). For (B) and (C), IMVs were incubated with the same concentrations of compound 181^JS prior to initiation of Tat transport and Δψ generation by the addition of NADH, as described previously. The red curves are best-fits using y = d + (100-d)/(1+(x/IC50)^b), where b is a slope factor and d is the high concentration asymptote. (TIFF) Click here for additional data file.
As for `Cc1ccc(S(=O)(=O)/C=C/C#N)cc1` [Bay 11–7082], the “effect on in vitro E. coli Tat transport” value is on record as “neither compound affected; also recorded: do not inhibit”. For `O=C1C=CC(=O)N1c1ccccc1` [N-phenylmaleimide], the “effect on in vitro E. coli Tat transport” value was “neither compound affected; also recorded: do not inhibit”.

Still in this assay, the particulars now being: efficiency of NADH-dependent in vitro Tat transport of pre-SufI; IMVs A280 = 5.
`N#CC1c2ccccc2-n2nncc2CN1Cc1cc(Cl)cc(Cl)c1` (stereo not shown) [21^NIH, 5-[(3,5-dichlorophenyl)methyl]-4,6-dihydrotriazolo[1,5-a][1, 4]benzodiazepine-6-carbonitrile]: the IC50 was 50 µM. Consider `Fc1nc(F)c(F)c(NNC(=S)Nc2cccc(C(F)(F)F)c2)c1F` [Compound 111, 1-[(2,3,5,6-tetrafluoropyridin-4-yl)amino]-3-[(3-trifluoromethyl)phenyl]thiourea], for which the IC50 is 0.7 µM.

Staying with this assay, now noted: hit compound 20 μM; NADH 4 mM; 37°C 30 min.
As for `N#CC(C#N)=NNc1ccccc1Br` [Compound 1, [(2-bromophenyl)hydrazono]malononitrile], the “outcome of NADH-dependent in vitro Tat transport screen (survival = visible inhibition of Tat transport)” value was “survived”.

`O=[N+]([O-])c1cc([N+](=O)[O-])c2ccccc2c1Cl` [Compound 51, 1-chloro-2,4-dinitronaphthalene]: the “outcome of NADH-dependent in vitro Tat transport screen (survival = visible inhibition of Tat transport)” value is “survived”. With `Fc1nc(F)c(F)c(NNC(=S)Nc2cccc(C(F)(F)F)c2)c1F` [Compound 111, 1-[(2,3,5,6-tetrafluoropyridin-4-yl)amino]-3-[(3-trifluoromethyl)phenyl]thiourea], the “outcome of NADH-dependent in vitro Tat transport screen (survival = visible inhibition of Tat transport)” value is listed as “survived”. In the case of `FC(F)(F)c1cccc(-c2cccc3cnccc23)c1` [Compound 140, 5-[3-(trifluoromethyl)phenyl]isoquinoline], the “outcome of NADH-dependent in vitro Tat transport screen (survival = visible inhibition of Tat transport)” value is “survived”. For `O=C(Nc1cccc(C(F)(F)F)c1)Nc1ncc([N+](=O)[O-])s1` [Compound 181^JS, 1-(5-nitro-1,3-thiazol-2-yl)-3-[3-(trifluoromethyl)phenyl]urea], the “outcome of NADH-dependent in vitro Tat transport screen (survival = visible inhibition of Tat transport)” value is “survived”. With `O=[N+]([O-])c1ccc(O)c(-c2cccs2)c1` [Compound 202, 4-nitro-2-thiophen-2-ylphenol], the “outcome of NADH-dependent in vitro Tat transport screen (survival = visible inhibition of Tat transport)” value is reported as “survived”.
